Source: PubChem BioAssay (NCI)
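How tested: cells in 96-well plates exposed to compound for 48 hours at five concentrations. TGI marks complete inhibition of growth.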

Key:
Test in all cases: NCI-60 cell line screen, 48 h
[1] = test system: KM12 colon
[2] = test system: T-47D breast
[3] = test system: OVCAR-8 ovarian
[4] = test system: NCI-H226 lung
[5] = test system: OVCAR-4 ovarian
[6] = test system: HCT-15 colon
[7] = test system: SF-539 CNS
[8] = test system: LOX IMVI melanoma
[9] = test system: UACC-62 melanoma
[10] = test system: SK-MEL-28 melanoma
[11] = test system: ACHN renal
[12] = test system: MCF7 breast
[13] = test system: NCI/ADR-RES ovarian
[14] = test system: SF-295 CNS
[15] = test system: SNB-19 CNS
[16] = test system: SNB-75 CNS
[17] = test system: MALME-3M melanoma
[18] = test system: DU-145 prostate
[19] = test system: HOP-92 NSCLC
[20] = test system: OVCAR-3 ovarian
[21] = test system: SN12C renal
[22] = test system: IGROV1 ovarian
[23] = test system: SK-MEL-5 melanoma
[24] = test system: UACC-257 melanoma
[25] = test system: HCT-116 colon
[26] = test system: K-562 leukemia
[27] = test system: PC-3 prostate
[28] = test system: 786-0 renal
[29] = test system: HT29 colon
[30] = test system: CCRF-CEM leukemia
[31] = test system: EKVX NSCLC
[32] = test system: MDA-MB-435
[33] = test system: MDA-MB-231 breast
[34] = test system: RXF 393 renal
[35] = test system: SK-OV-3 ovarian
[36] = test system: U251 CNS
[37] = test system: COLO 205 colon
[38] = test system: NCI-H522 lung
[39] = test system: NCI-H23 lung
[40] = test system: UO-31 renal
[41] = test system: SK-MEL-2 melanoma
[42] = test system: HCC-2998 colon
[43] = test system: TK-10 renal
[44] = test system: MDA-N
[45] = test system: A549 NSCLC
[46] = test system: CAKI-1 renal
[47] = test system: MOLT-4 leukemia
[48] = test system: HOP-62 NSCLC
[49] = test system: M14 melanoma
[50] = test system: RPMI-8226 leukemia
[51] = test system: OVCAR-5 ovarian
[52] = test system: NCI-H460 lung
[53] = test system: HL-60(TB) leukemia
[54] = test system: BT-549 breast
[55] = test system: SW-620 colon
[56] = test system: SR leukemia
[57] = test system: SF-268 CNS

In the case of C=C1[C@@H](OC(C)=O)[C@H]2[C@@H](OC(C)=O)[C@@](C)(OC(C)=O)C[C@]2(OC(C)=O)C(=O)[C@@H](C)/C=C/C(C)(C)C(=O)C[C@H]1OC(C)=O, the TGI [1] is reported as greater than 100 µM, the TGI [2] is reported as greater than 100 µM and the TGI [3] is reported as greater than 100 µM. The TGI [4] was greater than 100 µM, the TGI [5] was greater than 100 µM and the TGI [6] was greater than 100 µM. The TGI [7] was greater than 100 µM, the TGI [8] was greater than 100 µM and the TGI [9] was greater than 100 µM. The TGI [10] was greater than 100 µM, the TGI [11] was greater than 100 µM and the TGI [12] was greater than 100 µM. For the same molecule, the TGI [13] was greater than 100 µM, the TGI [14] was greater than 100 µM and the TGI [15] was greater than 100 µM. For the same molecule, the TGI [16] was greater than 100 µM, the TGI [17] was greater than 100 µM and the TGI [18] was greater than 100 µM. The TGI [19] was greater than 100 µM, the TGI [20] was greater than 100 µM and the TGI [21] was greater than 100 µM. For the same molecule, the TGI [22] was greater than 100 µM, the TGI [23] was greater than 100 µM and the TGI [24] was greater than 100 µM. The TGI [25] was greater than 100 µM, the TGI [26] was greater than 100 µM and the TGI [27] was greater than 100 µM. For the same molecule, the TGI [28] was greater than 100 µM, the TGI [29] was greater than 100 µM and the TGI [30] was greater than 100 µM. For the same molecule, the TGI [31] was greater than 100 µM, the TGI [32] was greater than 100 µM and the TGI [33] was greater than 100 µM. The TGI [34] was greater than 100 µM, the TGI [35] was greater than 100 µM and the TGI [36] was greater than 100 µM. For the same molecule, the TGI [37] was greater than 100 µM, the TGI [38] was greater than 100 µM and the TGI [39] was greater than 100 µM. The TGI [40] was greater than 100 µM, the TGI [41] was greater than 100 µM and the TGI [42] was greater than 100 µM. It also gave a TGI [43] greater than 100 µM, a TGI [44] greater than 100 µM and a TGI [45] greater than 100 µM. The TGI [46] was greater than 100 µM, the TGI [47] was greater than 100 µM and the TGI [48] was greater than 100 µM. It also gave a TGI [49] greater than 100 µM, a TGI [50] greater than 100 µM and a TGI [51] greater than 100 µM.

CC(=O)/C=C/CCC(=O)/C=C/C(=O)OC(CCC(=O)/C=C/C(=O)O)CC(C)=O (stereo not drawn) was tested, and the TGI [1] was greater than 100 µM, the TGI [2] was greater than 100 µM and the TGI [3] was greater than 100 µM. It also gave a TGI [4] greater than 100 µM, a TGI [5] greater than 100 µM and a TGI [6] greater than 100 µM. The TGI [7] was greater than 100 µM, the TGI [9] was greater than 100 µM and the TGI [10] was greater than 100 µM. It also gave a TGI [11] greater than 100 µM, a TGI [12] greater than 100 µM and a TGI [13] greater than 100 µM. For the same molecule, the TGI [14] was greater than 100 µM, the TGI [15] was greater than 100 µM and the TGI [52] was greater than 100 µM. For the same molecule, the TGI [17] was greater than 100 µM, the TGI [18] was greater than 100 µM and the TGI [19] was greater than 100 µM. The TGI [20] was greater than 100 µM, the TGI [21] was greater than 100 µM and the TGI [22] was greater than 100 µM. It also gave a TGI [23] greater than 100 µM, a TGI [53] greater than 100 µM and a TGI [24] greater than 100 µM. It also gave a TGI [25] greater than 100 µM, a TGI [26] greater than 100 µM and a TGI [27] greater than 100 µM. For the same molecule, the TGI [28] was greater than 100 µM, the TGI [29] was greater than 100 µM and the TGI [30] was greater than 100 µM. For the same molecule, the TGI [31] was greater than 100 µM, the TGI [32] was greater than 100 µM and the TGI [33] was greater than 100 µM. The TGI [34] was greater than 100 µM, the TGI [36] was greater than 100 µM and the TGI [37] was greater than 100 µM. For the same molecule, the TGI [38] was greater than 100 µM, the TGI [54] was greater than 100 µM and the TGI [39] was greater than 100 µM. The TGI [55] was greater than 100 µM, the TGI [56] was greater than 100 µM and the TGI [42] was greater than 100 µM. The TGI [43] was greater than 100 µM, the TGI [57] was greater than 100 µM and the TGI [44] was greater than 100 µM. The TGI [45] was greater than 100 µM, the TGI [47] was greater than 100 µM and the TGI [48] was greater than 100 µM. For the same molecule, the TGI [49] was greater than 100 µM, the TGI [50] was greater than 100 µM and the TGI [51] was greater than 100 µM.

CC(C)(C)C1=NC(=S)SC2=NC(=O)C3(NN21)c1ccccc1-c1ccccc13 gave a TGI [1] greater than 10 µM, a TGI [2] greater than 10 µM and a TGI [3] greater than 10 µM. For the same molecule, the TGI [4] was greater than 10 µM, the TGI [5] was greater than 10 µM and the TGI [6] was greater than 10 µM. For the same molecule, the TGI [8] was greater than 10 µM, the TGI [9] was greater than 10 µM and the TGI [10] was greater than 10 µM. For the same molecule, the TGI [11] was greater than 10 µM, the TGI [12] was greater than 10 µM and the TGI [13] was greater than 10 µM. For the same molecule, the TGI [14] was greater than 10 µM, the TGI [15] was greater than 10 µM and the TGI [16] was greater than 10 µM. The TGI [52] was greater than 10 µM, the TGI [17] was greater than 10 µM and the TGI [18] was greater than 10 µM. The TGI [19] was greater than 10 µM, the TGI [21] was greater than 10 µM and the TGI [22] was greater than 10 µM. For the same molecule, the TGI [23] was greater than 10 µM, the TGI [53] was greater than 10 µM and the TGI [24] was greater than 10 µM. It also gave a TGI [26] greater than 10 µM, a TGI [27] greater than 10 µM and a TGI [28] greater than 10 µM. It also gave a TGI [29] greater than 10 µM, a TGI [30] greater than 10 µM and a TGI [31] greater than 10 µM. The TGI [32] was greater than 10 µM, the TGI [33] was greater than 10 µM and the TGI [34] was greater than 10 µM. For the same molecule, the TGI [35] was greater than 10 µM, the TGI [37] was greater than 10 µM and the TGI [38] was greater than 10 µM. For the same molecule, the TGI [54] was greater than 10 µM, the TGI [39] was greater than 10 µM and the TGI [55] was greater than 10 µM. The TGI [40] was greater than 10 µM, the TGI [56] was greater than 10 µM and the TGI [42] was greater than 10 µM. It also gave a TGI [43] greater than 10 µM, a TGI [57] greater than 10 µM and a TGI [44] greater than 10 µM. For the same molecule, the TGI [45] was greater than 10 µM, the TGI [46] was greater than 10 µM and the TGI [47] was greater than 10 µM. The TGI [48] was greater than 10 µM, the TGI [49] was greater than 10 µM and the TGI [50] was greater than 10 µM.
